# Measured values reported in patent US20220332695A1, “UREA DERIVATIVES AS CB1 ALLOSTERIC MODULATORS” (RTI INTERNATIONAL, priority 2019, published 2022).
# Values joined by “and” are separate entries in the source; they are usually repeats but may differ in a detail not shown here. Identical values can stand only once. “Also recorded” adds a separate entry of the source. Like-named read-outs stand apart in the source and are kept apart here.
# Experiments:
# [1] = Kinetic solubility assessment; format: physicochemical; details: phosphate buffer, 2 hours room temperature
# Method: The solution was agitated on a VX-2500 multi-tube vortexer (VWR International, Radnor, Pa., United States of America) for 2 hours at room temperature. Following agitation, the sample was filtrated on a glass-fiber filter (1 μm) and the eluate was diluted 400-fold with a mixture of acetonitrile: water (1:1). On each experimental occasion, nicardipine and imipramine were assessed as reference compounds for low and high solubility, respectively. All samples were assessed in triplicate and analyzed by LC-MS/MS using electrospray ionization against standards prepared in the same matrix.
# mouse CB1R = molecular target: T1, mouse CB1R (Mus musculus, UniProt P47746); assay: [35S]GTPγS binding assay in mouse cerebellum membranes; format: biochemical
# T1 construct: membranes (10 μg protein) from either ICR mouse cerebellum mice; from tissue; host or cells: cerebellum membranes of ICR mice
# T1 sequence (P47746 whole entry): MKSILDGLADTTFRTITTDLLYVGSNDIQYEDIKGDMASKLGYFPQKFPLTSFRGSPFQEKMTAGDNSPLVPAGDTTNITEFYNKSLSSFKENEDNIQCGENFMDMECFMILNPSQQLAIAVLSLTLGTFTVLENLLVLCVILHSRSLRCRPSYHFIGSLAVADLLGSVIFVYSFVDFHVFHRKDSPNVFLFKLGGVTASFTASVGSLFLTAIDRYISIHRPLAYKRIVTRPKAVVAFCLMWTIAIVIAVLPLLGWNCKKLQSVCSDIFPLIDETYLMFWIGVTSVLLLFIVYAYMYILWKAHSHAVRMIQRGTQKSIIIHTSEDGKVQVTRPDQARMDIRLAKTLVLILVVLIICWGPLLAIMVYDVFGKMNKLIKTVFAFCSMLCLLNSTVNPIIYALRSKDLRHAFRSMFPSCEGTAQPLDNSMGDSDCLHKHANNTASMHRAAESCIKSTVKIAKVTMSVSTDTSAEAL
# Method: (§6) [^35S]GTPγS Binding Assay: For receptor signaling, membranes (10 μg protein) from either ICR mouse cerebellum mice (6-8 weeks old; Enviga
# (§7) Non-specific binding was determined by adding 30 μM unlabeled GTPyS. Concentration response curves for allosteric modulators were conducted in the presence of CP55,940 (100 nM or 1 μM) to calculate 1050 values.
# (§8) For [^35S]GTPyS experiments, data were normalized to maximal CP55,940 (100 nM) stimulation in the absence of test compound (i.e., vehicle=100%).
# Select compounds were evaluated in the CP55,940-induced [^35S]GTPyS binding assays using mouse cerebellum membrane at two CP55,940 concentrations, 100 nM and 1μM.
# [2] = Metabolic stability in rat liver microsomes; format: in vitro ADME; details: for half-life / Clearance: mean ± SD; for microsomal CLint: pH 7.4, mean ± SD, read-out: Clearance
# Method: Metabolic stability assessment: Compounds were incubated with rat liver microsomes at 37° C. for a total of 45 minutes. The reaction was performed at pH 7.4 in 100 mM potassium phosphate buffer containing 0.5 mg/mL of rat liver microsomal protein. Phase I metabolism was assessed by adding NADPH to a final concentration of 1 mM and collecting samples at time points 0, 5, 15, 30 and 45 minutes. All collected samples were quenched 1:1 with ice-cold stop solution (1 μM labetalol and 1 μM glyburide in acetonitrile) and centrifuged to remove precipitated protein. Resulting supernatants were further diluted 1:4 with acetonitrile:water (1:1). Samples were analyzed by LC/MS/MS and calculations for half-life, and in-vitro clearance were accomplished using Microsoft Excel (2007).
# MDCK-MDR1 cells = assay: Bidirectional MDCK-MDR1 permeability assay; format: in vitro ADME; details: for Papp A to B / Papp B to A: MDCK-MDR1, 10 μM test article
# Method: (§1) Permeability Assessment. Bidirectional MDCK-MDR1 permeability assay was performed by Paraza Pharma Inc. (Montreal, Canada). MDCK-mdr1 cells at passage 5 were seeded onto permeable polycarbonate supports in 12-well Costar Transwell plates and allowed to grow and differentiate for 3 days. On day 3, culture medium (DMEM supplemented with 10% FBS) was removed from both sides of the transwell inserts and cells were rinsed with warm HBSS. After the rinse step, the chambers were filled with warm transport buffer (HBSS containing 10 mM HEPES, 0.25% BSA, pH 7.4) and the plates were incubated at 37° C. for 30 min prior to TEER (Trans Epithelial Electric Resistance) measurements.
# (§2) The buffer in the donor chamber (apical side for A-to-B assay, basolateral side for B-to-A assay) was removed and replaced with the working solution (10 μM test article in transport buffer). The plates were then placed at 37° C. under light agitation. At designated time points (30, 60 and 90 min), an aliquot of transport buffer from the receiver chamber was removed and replenished with fresh transport buffer. Samples were quenched with ice-cold ACN containing internal standard and then centrifuged to pellet protein. Resulting supernatants are further diluted with 50/50 ACN/H2O (H2O only for Atenolol) and submitted for LC-MS/MS analysis. Reported apparent permeability (Papp) values were calculated from single determination.
# (§3) Atenolol and propranolol were tested as low and […] permeability references.
# (§4) The apparent permeability (Papp, measured in cm/s) of a compound is determined according to the following formula […]: […]
# (§5) where dQ/dt is the net rate of appearance in the receiver compartment; A is the area of the Transwell measured in cm^2 (1.12 cm^2); Ci is the initial concentration of compound added to the donor chamber; and 60 is the conversion factor for minute to second.
# hCB1R [3] = molecular target: T2, hCB1R (Homo sapiens, UniProt P21554); assay: Intrinsic activity: basal [35S]GTPγS binding in the absence of CP55,940; format: biochemical; details: up to 10 μM
# T2 sequence (P21554 whole entry): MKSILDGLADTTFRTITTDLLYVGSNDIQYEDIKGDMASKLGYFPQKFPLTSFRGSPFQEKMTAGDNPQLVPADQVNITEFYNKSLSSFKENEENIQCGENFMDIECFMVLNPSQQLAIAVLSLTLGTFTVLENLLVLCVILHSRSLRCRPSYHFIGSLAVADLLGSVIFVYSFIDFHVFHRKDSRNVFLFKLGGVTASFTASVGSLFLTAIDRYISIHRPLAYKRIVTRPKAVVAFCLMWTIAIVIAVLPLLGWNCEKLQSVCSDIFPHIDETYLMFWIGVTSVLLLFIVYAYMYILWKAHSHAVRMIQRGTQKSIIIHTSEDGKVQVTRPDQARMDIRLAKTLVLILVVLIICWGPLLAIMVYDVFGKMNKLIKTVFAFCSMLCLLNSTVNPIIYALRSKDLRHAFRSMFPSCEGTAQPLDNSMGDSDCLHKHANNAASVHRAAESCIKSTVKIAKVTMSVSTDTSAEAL
# hCB1R [4] = molecular target: T2, hCB1R; assay: Calcium mobilization assay, antagonist mode against CP55,940; format: cell-based; parameters: expressed in transfected cells; host or cells: CHO-RD-HGA16 cells (parental line from Molecular Devices)
# Method: Calcium Mobilization Assay: CHO-RD-HGA16 cells (Molecular Devices, San Jose, Calif., United States of America) stably expressing the human CB1 receptor were plated into 96-well black-walled assay plates at 25,000 cells/well in 100 pL of Ham's F12 (supplemented with 10% fetal bovine serum, 100 units of penicillin/streptomycin, and 100 µg/mL Normocin) and incubated overnight at 37° C., 5% CO2. Calcium 5 dye (Molecular Devices, San Jose, Calif., United States of America) was reconstituted according to the manufacturer's instructions. The reconstituted dye was diluted 1:40 in prewarmed (37° C.) assay buffer (1x HBSS, 20 mM HEPES, 2.5 mM probenecid, pH 7.4 at 37° C.). Growth medium was removed, and the cells were gently washed with 100 pL of prewarmed (37° C.) assay buffer. The cells were incubated for 45 min at 37° C., 5% CO2 in 200 pL of the diluted Calcium 5 dye solution. […] Serial dilutions of the test compounds were prepared at 10x the desired final concentration in 2.25% BSA/4.5% DMSO/4.5% EtOH/assay buffer. After the dye loading incubation period, the cells were pretreated with 25 pL of the test compound serial dilutions and incubated for 15 min at 37° C. After the pretreatment incubation period, the plate was read with a FLIPR Tetra (Molecular Devices, San Jose, Calif., United States of America). Calcium-mediated changes in fluorescence were monitored every 1 s over a 90 s time period, with the Tetra adding 25 pL of the CP55,940 EC80 concentration at the 10s time point (excitation/emission: 485/525 nm). Relative fluorescence units (RFU) were plotted against the log of compound concentrations. For agonist screens, the above procedure was followed except that cells were pretreated with 2.25% BSA/4.5% DMSO/4.5% EtOH/assay buffer and the Tetra added single concentration dilutions of the test compounds prepared at 10x the desired final concentration in 0.25% BSA/0.5% DMSO/0.5% EtOH/assay buffer. Test compound RFUs were compared to the CP55,940 Emax RFUs to generate % Emax values.
# Data Analysis: For calcium mobilization experiments, data were fit to a three-parameter logistic curve to generate IC50 values (GraphPad Prism 6.0, Graphpad Software, San Diego, Calif., United States of America).
# locomotion in rats [5] = assay: Locomotion in rats; details: rat, 10 mg/kg i.p.
# Source text: (§9) Locomotion is presented as total distance (in millimeters (mm)) versus time (in minutes) after administration. The effects of treatment with vehicle is also shown as a control.
# hCB1R [6] = molecular target: T2, hCB1R; assay: Real-time BRET CAMYEL cAMP assay in HEK293 cells expressing human CB1; format: cell-based; parameters: expressed in transfected cells; host or cells: HEK293 cells stably transfected with human CB1, transiently transfected with pcDNA3L-His-CAMYEL sensor; details: [CP] = 100 nM; forskolin-stimulated cAMP
# Method: cAMP Assay: The cAMP assay was performed as previously described. […] Briefly, forskolin (FSK)-stimulated cyclic adenosine monophosphate (cAMP) production was measured in real-time using a transfected bioluminescence resonance energy transfer (BRET) cAMP sensor. The plasmid encodes a cAMP binding domain (Epac1) flanked by yellow fluorescent protein (YFP) and Renilla Luciferase (RLuc) assay, the latter of which can oxidize coelenterazine H and produce a photon as a byproduct. When cAMP is bound to the Epac1 domain, it separates RLuc and YFP so only Rluc emits a photon at a wavelength of 460 nm. When cAMP is not bound, RLuc can excite YFP, emitting light at wavelength 535 nm. A plate reader measures both wavelengths and their ratio, 460/535, is calculated to quantify cAMP levels where increases in the ratio indicate increases in cAMP. Human Embryonic Kidney 293 (HEK293) cells stably transfected with the human cannabinoid type-1 (C131) were maintained at 37° C. at 5% CO2 and seeded in 100 mM dishes for transfection. The next day, cells were given fresh growth media and transfected with 5 pg of pcDNA3L-His-CAMYEL using linear polyethyleneimine (25 kDa, Polysciences, Warrington, Pennsylvania, United States of America) in 1:6 DNA:PEI (ATCC, Manassas, Virginia, United States of America) ratio. The next day, cells were lifted using 1 mM EDTA in PBS and spun down at 200xg for 5 min. The supernatant was removed, and cells were resuspended in growth media and plated on poly-D-lysine (Sigma Aldrich, St. Louis, Missouri, United States of America) coated white 96 well plates at 60,000 cells per well, filling 2 columns of 8 wells each per plate, i.e. 8 samples in duplicate per plate (Perkin Elmer, Waltham, Massachusetts,
# United States of America). The following day, media was removed, cells were rinsed with PBS and buffers/reagents/drugs added as following: At 0 min, 175 of stimulation buffer (5 mg/ml bovine serum albumin in HBSS including Ca^2+ and Mg^2+); at 10 min, 25 μL of allosteric modulators added; at 15 min: 25 μL coelenterazine added (5 μM final); at 25 min, 25 μL of forskolin (10 final) with or without CP55,940 (100 nM final) added. […] Ratio of 460/535 is calculated for each time point and plotted across time and area under the curve analysis is conducted for each replicate and averaged by condition/day where each day serves as an independent experiment. Data were calculated as %FSK using the formula [(sample-basal)/(forskolin-basal)×100]. IC50 values were calculated from these normalized concentration-response data using Prism 6 (Graphpad Software, San Diego, Calif., United States of America) using 3 parameter non-linear regression. Data are plotted as mean of at least N=3 independent experiments either normalized to forskolin (concentration response data) or the calculated 460/535 BRET ratio (time course data).
# hCB1R [7] = molecular target: T2, hCB1R; assay: [35S]GTPγS binding assay in HEK cells stably expressing human CB1R; format: biochemical; parameters: expressed in transfected cells; host or cells: HEK (HEK293) cells, membranes; details: [CP] = 100 nM, mean (95% confidence interval), read-out: hCB1R [35S]GTPγS binding assay IC50
# Method: as §6, §7, §8
# P-gp (MDR1) = assay: Bidirectional MDCK-MDR1 permeability assay; format: in vitro ADME; details: dog, pH 7.4; MDCK-MDR1, 10 μM test article
# Method: as §1, §2, §3, §4, §5
# [8] = test system: cocaine-seeking behavior in rats; assay: Cocaine-induced reinstatement of extinguished cocaine-seeking behavior; format: in vivo, male Sprague-Dawley rats; details: rat, 10 mg/kg i.p. pretreatment
# Method: In both graphs, the effect of treatment with vehicle (unfilled bars) is shown as a control. *p<0.05.
# Adult male Sprague-Dawley rats (Harlan, Indianapolis, Ind., United States of America) weighing 280-300 g were used in the study. Animals were housed individually on a 12/12 hr light/dark cycle (behavioral experiments were conducted during the light period) with free access to water and food except during experimental sessions.
# The reinstatement procedure has been previously described. See Jing et al., Drug Alcohol Depend. 2014, 143, 251-256; and Thorn et al., Neuropsychopharmacology 2014, 39, 2309-2316. Briefly, rats were surgically implanted with a chronic indwelling jugular catheter. […]
# Data analyses: Data are expressed as mean ±S.E.M. Differences in active lever responding between the last extinction session and reinstatement session were determined with paired t tests (within subjects comparison). The effects of compounds 2 on reinstatement were analyzed by a one-way analysis of variance (ANOVA) followed by post hoc Bonferroni's test (between subjects comparison). The effects of compounds 34 on reinstatement was analyzed by Student's t test. […]
# locomotion in rats [9] = details: rat, in vivo, ip, 10 mg/kg
# Source text: as §9
# [10] = aqueous buffer, kinetic from dmso stock
# [11] = mouse cerebellum membrane, [CP] = 100 nM, read-out: mCB1R GTPγS IC50
# [12] = mouse cerebellum membrane, [CP] = 1 uM, read-out: mCB1R GTPγS IC50
# [13] = CHO cells expressing human CB1R, against CP55,940 (100 nM), mean ± SEM, read-out: hCB1R Calcium assay IC50
# [14] = pH 7.4, NADPH, read-out: Half-life
SMILES,"solubility at 2 h [1, 10]",IC50 (mouse CB1R; [11]),IC50 (mouse CB1R; [12]),Clearance [2],Papp A to B (MDCK-MDR1 cells),Papp B to A (MDCK-MDR1 cells),inverse agonism (in words) (hCB1R [3]),IC50 (hCB1R [4]; [13]),IC50 (hCB1R [6]),IC50 (hCB1R [7]),"half-life [2, 14]",microsomal CLint [2],also measured
"O=C(Nc1ccc(Cl)cc1)Nc1cccc(-c2cccc(N3CCCC3)n2)c1 [Compound 2, reference compound]",< 0.5 µM,244 nM,127 nM,113.7 ± 34.4 µL/min/mg,2.6 ± 0 ×10^−6 cm/s,2.2 ± 0.1 ×10^−6 cm/s,–,–,–,–,–,–,half-life ([2]; NADPH): 13 min and 13.4 ± 4.1 min
"O=C(Nc1ccc(Cl)cc1)Nc1ccc(-c2ccccc2)s1 [Compound 11, 1-(4-Chlorophenyl)-3-(5-phenylthiophen-2-yl)urea]",–,63 nM,–,22.2 ± 6.5 µL/min/mg,1.6 ± 0.1 ×10^−6 cm/s,1.1 ± 0.4 ×10^−6 cm/s,some degree of inverse agonism; also recorded: very little inverse agonism,7 nM,1760 nM,524 nM,–,–,solubility at 2 h [1]: 1.5 µM; Efflux BA/AB (MDCK-MDR1 cells; MDCK-MDR1): 0.7; effect on locomotion (locomotion in rats [5]): significant reduction of locomotion
"O=C(Nc1ccc(Cl)cc1)Nc1ncc(-c2ccccc2)s1 [Compound 14, 1-(4-Chlorophenyl)-3-(5-phenyl-1,3-thiazol-2-yl)urea]",–,–,–,–,–,–,some degree of inverse agonism,79 ± 10 nM,–,604 nM,–,–,–
"O=C(Nc1ccc(Cl)cc1)Nc1ccc(-c2ccc(F)cc2F)s1 [Compound 20, 1-(4-Chlorophenyl)-3-[5-(2,4-difluorophenyl)thiophen-2-yl]urea]",< 0.5 µM,138 nM,48 nM,–,–,–,–,22 ± 4 nM,2290 nM,84 nM,72 min,19.3 ± 1.6 µL/min/mg,–
"O=C(Nc1ccc(Cl)cc1)Nc1ccc(-c2ccncc2)s1 [Compound 35, 1-(4-Chlorophenyl)-3-[5-(pyridin-4-yl)thiophen-2-yl]urea]",–,287 nM and 204 nM,129 nM and 120 nM,–,–,–,some degree of inverse agonism,79 ± 13 nM,1800 nM,298 nM,–,–,–
"O=C(NCCc1cccc(Cl)c1)Nc1ccc(Cl)cc1 [Compound 68, 3-(4-Chlorophenyl)1-[2-(3-chlorophenyl)ethyl]urea]",< 0.5 µM,–,–,–,–,–,–,–,–,–,9.6 min,144 ± 8.4 µL/min/mg,"IC50 (mouse CB1R; Tables 4-6, CP55,940 concentration not stated, mean (95% confidence interval), read-out: mCB1R [35S]GTPγS binding assay IC50): 561 nM; IC50 (hCB1R [4]): 30 ± 4 nM; Papp A→B at 90 min, 10 µM (P-gp (MDR1)): > 15 ×10⁻⁶ cm/s; Papp B→A at 90 min, 10 µM (P-gp (MDR1)): > 15 ×10⁻⁶ cm/s; effect on cocaine-induced reinstatement of cocaine-seeking behavior [8]: good in vivo efficacy; also recorded: attenuated cocaine-induced reinstatement of cocaine-seeking behavior; effect on locomotion (locomotion in rats [9]): did not affect locomotion"
